# According to patent US20140135319A1, “6-SUBSTITUTED IMIDAZOPYRAZINES FOR USE AS MPS-1 AND TKK INHIBITORS IN THE TREATMENT OF HYPERPROLIFERATIVE DISORDERS” (BAYER INTELLECTUAL PROPERTY GMBH, priority 2010, published 2014):
# Biological target: T1, human kinase Mps-1 (Homo sapiens, UniProt P33981)
# T1 construct: N-terminally GST-tagged human full length recombinant Mps-1 kinase; GST (N); purchased Invitrogen, Karslruhe, Germany PV4071
# T1 sequence (P33981 1-857): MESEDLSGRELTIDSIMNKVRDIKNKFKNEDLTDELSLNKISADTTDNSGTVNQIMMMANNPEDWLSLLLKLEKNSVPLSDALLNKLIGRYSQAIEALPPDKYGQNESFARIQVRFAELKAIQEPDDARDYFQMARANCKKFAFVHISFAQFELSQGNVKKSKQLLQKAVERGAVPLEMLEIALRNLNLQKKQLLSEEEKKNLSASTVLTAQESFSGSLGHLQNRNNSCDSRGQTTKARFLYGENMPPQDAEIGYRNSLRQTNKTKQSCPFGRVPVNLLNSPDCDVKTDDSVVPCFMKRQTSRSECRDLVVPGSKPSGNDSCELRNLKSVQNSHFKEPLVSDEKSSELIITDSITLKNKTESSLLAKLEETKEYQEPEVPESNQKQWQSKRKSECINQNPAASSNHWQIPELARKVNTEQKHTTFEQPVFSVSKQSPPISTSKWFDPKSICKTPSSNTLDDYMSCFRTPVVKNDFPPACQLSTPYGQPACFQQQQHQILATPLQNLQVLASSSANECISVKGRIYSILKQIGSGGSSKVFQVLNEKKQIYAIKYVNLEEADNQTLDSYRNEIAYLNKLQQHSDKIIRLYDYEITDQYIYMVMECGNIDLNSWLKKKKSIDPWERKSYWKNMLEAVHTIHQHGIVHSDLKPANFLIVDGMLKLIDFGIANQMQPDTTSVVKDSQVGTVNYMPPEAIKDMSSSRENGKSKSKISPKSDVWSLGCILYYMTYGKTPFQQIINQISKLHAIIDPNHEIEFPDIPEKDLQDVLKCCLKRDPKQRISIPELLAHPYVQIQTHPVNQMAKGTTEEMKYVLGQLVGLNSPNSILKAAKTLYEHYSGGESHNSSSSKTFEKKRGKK
# Experiment: Mps-1 kinase assay (TR-FRET)
# Type: biochemical
# Settings: GST-tagged human full length recombinant Mps-1; 10 μM ATP; 1 μM peptide substrate; 60 min at 22° C.
# Experimental: The human kinase Mps-1 phosphorylates a biotinylated substrate peptide. Detection of the phosphorylated product is achieved by time-resolved fluorescence resonance energy transfer (TR-FRET) from Europium-labelled anti-phospho-Serine/Threonine antibody as donor to streptavidin labelled with cross-linked allophycocyanin (SA-XLent) as acceptor. Compounds are tested for their inhibition of the kinase activity.
# N-terminally GST-tagged human full length recombinant Mps-1 kinase (purchased from Invitrogen, Karslruhe, Germany, cat. no PV4071) was used. As substrate for the kinase reaction a biotinylated peptide of the amino-acid sequence […] (C-terminus in amide form, purchased from Biosynthan GmbH, Berlin) was used.
# The concentration of Mps-1 in the assay was adjusted to the activity of the enzyme lot and was chosen appropriate to have the assay in the linear range, typical enzyme concentrations were in the range of about 1 nM (final conc. in the 5 μl assay volume).
# The resulting mixture was incubated 1 h at 22° C. to allow the binding of the phosphorylated peptide to the anti-phospho(Ser/Thr)-Europium-antibody. Subsequently the amount of phosphorylated substrate was evaluated by measurement of the resonance energy transfer from the Europium-labelled anti-phospho(Ser/Thr) antibody to the Streptavidin-XLent. Therefore, the fluorescence emissions at 620 nm and 665 nm after excitation at 350 nm was measured in a Viewlux TR-FRET reader (PerkinElmer LAS, Rodgau-Jügesheim, Germany). The “blank-corrected normalized ratio” (a Viewlux specific readout, similar to the traditional ratio of the emissions at 665 nm and at 622 nm, in which blank and Eu-donor crosstalk are subtracted from the 665 nm signal before the ratio is calculated) was taken as the measure for the amount of phosphorylated substrate.
row,SMILES,IC50 [nM]
1,"Cc1cc(-c2cnc3c(NCCC(F)(F)F)nc(-c4ccoc4)cn23)ccc1C(=O)NC1CC1 [Example 1-71, N-cyclopropyl-4-{6-(furan-3-yl)-8-[(3,3,3-tri-fluoropropyl)amino]imidazo[1,2-a]pyrazin-3-yl}-2-methylbenzamide]",3.9
2,"CC(=O)NCc1ccc(-c2cn3c(-c4ccc(C(=O)NC5CC5)cc4)cnc3c(NCC(C)C)n2)cc1 [Example 1-18, 4-(6-{4-[(acetylamino)methyl]phenyl}-8-[(2-methylpropyl)amino]imidazo[1,2-a]pyrazin-3-yl)-N-cyclopropyl-benzamide]",1.6
3,"Cn1cc(CNc2nc(-c3ccncc3)cn3c(-c4ccc(C(=O)NC5CC5)cc4)cnc23)cn1 [Example 3-29, N-cyclopropyl-4-[8-{[(1-methyl-1H-pyrazol-4-yl)methyl]amino}-6-(pyridin-4-yl)imidazo [1,2-a]pyrazin-3-yl] benzamide]",5.6
4,"Cc1cc(-c2cnc3c(NCC(C)C)nc(-c4ccncc4)cn23)ccc1C(=O)NC1CC1 [Example 6-1, N-cyclopropyl-2-methyl-4-{8-[(2-methylpropyl)amino]-6-(pyridin-4-yl)imidazo[1,2-a]pyrazin-3-yl}benzamide]",1.5
5,"CC(C)(O)CNc1nc(-c2cccc(CC(N)=O)c2)cn2c(-c3ccc(C(=O)NC4CC4)cc3)cnc12 [Example 1-91, 4-{6-[3-(2-Amino-2-oxo-ethyl)phenyl]-8-[(2-hydroxy-2-methylpropyl)amino]imidazo[1,2-a]pyrazin-3-yl}-N-cyclopropylbenzamide]",4
6,"O=C(NC1CC1)c1ccc(-c2cnc3c(NCC4CCCO4)nc(-c4ccoc4)cn23)cc1Cl (stereo not shown) [Example 1-43, 2-chloro-N-cyclopropyl-4-{6-(furan-3-yl)-8-[(tetrahydrofuran-2-ylmethyl)amino]imidazo [1,2-a]pyrazin-3-yl} benzamide]",42.8
7,"O=C(NC1CC1)c1ccc(-c2cnc3c(NCCCn4ccnc4)nc(-c4ccncc4)cn23)cc1 [Example 3-16, N-cyclopropyl-4-[8-{[3-(1H-imidazol-1-yl)propyl]amino}-6-(pyridin-4-yl)imidazo[1,2-a]pyrazin-3-yl]benzamide]",12.9
8,"Cn1nccc1-c1cn2c(-c3ccc(C(=O)NC4CC4)c(Cl)c3)cnc2c(NCCCN)n1 [Example 1-98, 4-{8-[(3-Aminopropyl)amino]-6-(1-methyl-1H-pyrazol-5-yl)imidazo[1,2-a]pyrazin-3-yl}-2-chloro-N-cyclopropylbenzamide]",1340
9,"CC(C)CNc1nc(C2CCOCC2)cn2c(-c3ccc(C(=O)NC4CC4)cc3)cnc12 [Example 7-4, N-cyclopropyl-4-{8-[(2-methylpropyl)amino]-6-(tetrahydro-2H-pyran-4-yl)imidazo[1,2-a]pyrazin-3-yl}benzamide]",1.5
10,"Cc1cc(-c2cn3c(-c4ccc(C(=O)NC5CC5)c(C)c4)cnc3c(NCCC(F)(F)F)n2)ccn1 [Example 1-68, N-cyclopropyl-2-methyl-4-{6-(2-methylpyridin-4-yl)-8-[(3,3,3-trifluoro-propyl)amino]imidazo [1,2-a]pyrazin-3-yl} benzamide]",1.5
11,"CC(C)CNc1nc(-c2ccccc2)cn2c(-c3ccc(C(=O)NC4CC4(C)C)cc3)cnc12 (stereo not shown) [Example 2-1, N-(2,2-dimethylcyclopropyl)-4-{8-[(2-methylpropyl)amino]-6-phenylimidazo[1,2-a]pyrazin-3-yl}benzamide]",162
12,"Cn1nccc1CNc1nc(-c2ccoc2)cn2c(-c3ccc(C(=O)NC4CC4)c(F)c3)cnc12 [Example 1-65, N-cyclopropyl-2-fluoro-4-[6-(furan-3-yl)-8-{[(1-methyl-1H-pyrazol-5-yl)methyl]amino}imidazo [1,2-a]pyrazin-3-yl] benzamide]",4.3
13,"CC(C)CNc1nc(-c2ccnc(Cl)c2)cn2c(-c3ccc(C(=O)NC4CC4)cc3)cnc12 [Example 1-7, 4-{6-(2-chloropyridin-4-yl)-8-[(2-methylpropyl)amino]imidazo[1,2-a]pyrazin-3-yl}-N-cyclo-propylbenzamide]",4.2
14,"O=C(NC1CC1)c1ccc(-c2cnc3c(NCCO)nc(-c4ccncc4)cn23)cc1 [Example 3-4, N-cyclopropyl-4-{8-[(2-hydroxyethyl)amino]-6-(pyridin-4-yl)imidazo [1,2-a]pyrazin-3-yl} benzamide]",11.3
15,"C=C(C)CNc1nc(-c2ccccc2)cn2c(-c3ccc(C(=O)NC4CC4)cc3)cnc12 [Example 3-40, N-Cyclopropyl-4-{8-[(2-methylprop-2-en-1-yl)amino]-6-phenylimidazo[1,2-a]pyrazin-3-yl}benzamide]",3.7
16,"Cc1cc(-c2cnc3c(NCCC(F)(F)F)nc(C4=CC[S+]([O-])CC4)cn23)ccc1C(=O)NC1CC1 (stereo not shown) [Example 9-1, N-cyclopropyl-2-methyl-4-{6-(1-oxido-3,6-dihydro-2H-thiopyran-4-yl)-8-[(3,3,3-trifluoropropyl)amino]imidazo[1,2-a]pyrazin-3-yl}benzamide]",16
17,"Cc1cc(-c2cnc3c(NCCC(F)(F)F)nc(CN)cn23)ccc1C(=O)NC1CC1 [Example 10-1, 4-{6-(aminomethyl)-8-[(3,3,3-trifluoropropyl)amino]imidazo[1,2-a]pyrazin-3-yl}-N-cyclopropyl-2-methylbenzamide]",82.9
18,"CC(C)CNc1nc(C(=O)N2CCCCC2)cn2c(-c3ccc(C(=O)NC4CC4)cc3)cnc12 [Example 8-3, N-cyclopropyl-4-{8-[(2-methylpropyl)amino]-6-(piperidin-1-ylcarbonyl)imidazo[1,2-a]pyrazin-3-yl}benzamide]",20.6
19,"O=C(NC1CC1)c1ccc(-c2cnc3c(NCCC(F)(F)F)nc(-c4ccncc4)cn23)cc1 [Example 3-22, N-cyclopropyl-4-{6-(pyridin-4-yl)-8-[(3,3,3-trifluoropropyl)amino]imidazo[1,2-a]pyrazin-3-yl}benzamide]",1.1
20,"NCCCCNc1nc(-c2cccc(CC(N)=O)c2)cn2c(-c3ccc(C(=O)NC4CC4)cc3)cnc12 [Example 1-95, 4-{8-[(4-Aminobutyl)amino]-6-[3-(2-amino-2-oxoethyl)phenyl]imidazo[1,2-a]pyrazin-3-yl}-N-cyclo-propylbenzamide]",19.2
21,"O=C(NC1CC1)c1ccc(-c2cnc3c(NCCCCO)nc(-c4ccncc4)cn23)cc1 [Example 3-11, N-cyclopropyl-4-{8-[(4-hydroxybutyl)amino]-6-(pyridin-4-yl)imidazo [1,2-a]pyrazin-3-yl} benzamide]",4.1
22,"Cc1cc(-c2cnc3c(NCC4CC(F)(F)C4)nc(C4=CCOCC4)cn23)ccc1C(=O)NC1CC1 [Example 6-17, N-cyclopropyl-4-[8-{[(3,3-difluoro-cyclobutyl)methyl]amino}-6-(3,6-dihydro-2H-pyran-4-yl)imidazo [1,2-a]pyrazin-3-yl]-2-methylbenzamide]",10.5
23,"CC(C)CNc1nc(-c2cncc(F)c2)cn2c(-c3ccc(C(=O)NC4CC4)cc3)cnc12 [Example 1-21, N-cyclopropyl-4-{6-(5-fluoropyridin-3-yl)-8-[(2-methylpropyl)amino]imidazo[1,2-a]pyrazin-3-yl}benzamide]",19.4
24,"O=C(NC1CC1)c1ccc(-c2cnc3c(NCCc4nccs4)nc(-c4ccncc4)cn23)cc1 [Example 3-34, N-cyclopropyl-4-[6-(pyridin-4-yl)-8-{[2-(1,3-thiazol-2-yl)ethyl]amino}imidazo[1,2-a]pyrazin-3-yl]benzamide]",8.2
25,"CC(C)CNc1nc(-c2cnc3ccccc3c2)cn2c(-c3ccc(C(=O)NC4CC4)cc3)cnc12 [Example 1-2, N-cyclopropyl-4-{8-[(2-methylpropyl)amino]-6-(quinolin-3-yl)imidazo [1,2-a]pyrazin-3-yl} benzamide]",43.8
